Structures are written as SMILES.

T1 sequence (P43220 24-463): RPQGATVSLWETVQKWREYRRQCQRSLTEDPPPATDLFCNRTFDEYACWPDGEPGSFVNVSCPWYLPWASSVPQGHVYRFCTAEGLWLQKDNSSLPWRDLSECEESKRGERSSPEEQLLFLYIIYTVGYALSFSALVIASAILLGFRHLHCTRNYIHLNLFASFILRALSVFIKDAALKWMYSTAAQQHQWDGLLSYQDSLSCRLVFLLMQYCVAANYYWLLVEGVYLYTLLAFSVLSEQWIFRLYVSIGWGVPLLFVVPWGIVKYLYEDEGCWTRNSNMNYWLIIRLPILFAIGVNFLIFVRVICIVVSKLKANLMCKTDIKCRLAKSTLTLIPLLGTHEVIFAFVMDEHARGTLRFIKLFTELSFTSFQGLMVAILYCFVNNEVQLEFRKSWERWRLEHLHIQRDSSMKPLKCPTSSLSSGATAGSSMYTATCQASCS

This test concerns the target T1, GLP-1R (Homo sapiens, UniProt P43220).
T1 construct: host or cells: CHO cells
Kind of test: GLP-1R activation cAMP assay (Assay 1 or Assay 2). Type of test: cell-based. To be noted: cAMP increase in CHO cells stably expressing GLP-1R; compounds run on one of the two cAMP assays. The essentials:
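CHO cells stably expressing human GLP-1R were incubated 1 h in HBSS/20 mM HEPES/0.1% BSA, then exposed to 10-point agonist dilutions for 30 min at 37 °C. cAMP increase was measured with an HTRF Gs dynamic kit; EC50 from sigmoidal fit of response versus log concentration.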
(Cyclic AMP is a second messenger, typically raised through Gs and lowered through Gi signalling.)
In turn, `O=C(O)c1ccc2nc(Cc3cc(F)c(-c4cccc(OCc5ncc(-c6cncs6)s5)n4)cc3F)n(C[C@@H]3CCO3)c2c1` [Example 101, (S)-2-(4-(6-([5,5′-bithiazol]-2-ylmethoxy)pyridin-2-yl)-2,5-difluorobenzyl)-1-(oxetan-2-ylmethyl)-1H-benzo[d]imidazole-6-carboxylic acid] had an EC50 of 140 pM.

In the case of `O=C(O)c1ccc2nc(Cc3cc(F)c(-c4cccc(OCc5ccn(C(F)(F)F)n5)n4)cc3F)n(C[C@@H]3CCO3)c2c1` [Example 12, (S)-2-(2,5-difluoro-4-(6-((1-(trifluoromethyl)-1H-pyrazol-3-yl)methoxy)pyridin-2-yl)benzyl)-1-(oxetan-2-ylmethyl)-1H-benzo[d]imidazole-6-carboxylic acid], the midpoint of the response, the EC50, lay at 1160 pM.

With `COc1nnc(COc2cccc(-c3cc(Cl)c(Cc4nc5ccc(C(=O)O)cc5n4[C@@H]4COCC4(C)C)cc3C)n2)s1` [Example 442, (S)-2-(2-chloro-4-(6-((5-methoxy-1,3,4-thiadiazol-2-yl)methoxy)pyridin-2-yl)-5-methylbenzyl)-1-(4,4-dimethyltetrahydrofuran-3-yl)-1H-benzo[d]imidazole-6-carboxylic acid], the midpoint of the response, the EC50, lay at 669 pM.

For `O=C(O)c1ccc2nc(Cc3cc(F)c(-c4cccc(OCc5nc6ccccc6s5)n4)cc3F)n(C[C@@H]3CCO3)c2c1` [Example 34, (S)-2-(4-(6-(benzo[d]thiazol-2-ylmethoxy)pyridin-2-yl)-2,5-difluorobenzyl)-1-(oxetan-2-ylmethyl)-1H-benzo[d]imidazole-6-carboxylic acid], the response was half-maximal at 200 pM (EC50).

The compound `O=C(O)c1ccc2nc(Cc3cc(F)c(-c4ccc(F)c(OCc5ncc(C(F)(F)F)s5)n4)cc3F)n(C[C@@H]3CCO3)c2c1` [Example 370, (S)-2-(2,5-difluoro-4-(5-fluoro-6-((5-(trifluoromethyl)thiazol-2-yl)methoxy)pyridin-2-yl)benzyl)-1-(oxetan-2-ylmethyl)-1H-benzo[d]imidazole-6-carboxylic acid] had an EC50 of 280 pM.

For the compound `O=C(O)c1ccc2nc(Cc3cc(F)c(-c4cccc(OCc5ccc(C#Cc6cncnc6)cc5)n4)cc3F)n(C[C@@H]3CCO3)c2c1` [Example 405, (S)-2-(2,5-difluoro-4-(6-((4-(pyrimidin-5-ylethynyl)benzyl)oxy)pyridin-2-yl)benzyl)-1-(oxetan-2-ylmethyl)-1H-benzo[d]imidazole-6-carboxylic acid], the EC50 was 363 pM. This EC50 and that of the compound before are within 1.5-fold of each other.

As for `C[C@H](C#N)NC(=O)c1cc(Cl)c(COc2cccc(-c3cc(F)c(Cc4nc5ccc(C(=O)O)cc5n4C[C@@H]4CCO4)cc3F)n2)cn1` [Example 200, 2-(4-(6-((4-chloro-6-(((R)-1-cyanoethyl)carbamoyl)pyridin-3-yl)methoxy)pyridin-2-yl)-2,5-difluorobenzyl)-1-(((S)-oxetan-2-yl)methyl)-1H-benzo[d]imidazole-6-carboxylic acid], the EC50 amounted to 240 pM.

In turn, `O=C(O)c1ccc2nc(Cc3cc(F)c(-c4cccc(OCc5ncc(C#CC6(O)CCC6)s5)n4)cc3F)n(C[C@@H]3CCO3)c2c1` [Example 323, (S)-2-(2,5-difluoro-4-(6-((5-((1-hydroxycyclobutyl)ethynyl)thiazol-2-yl)methoxy)pyridin-2-yl)benzyl)-1-(oxetan-2-ylmethyl)-1H-benzo[d]imidazole-6-carboxylic acid] displayed an EC50 of 281 pM.

In turn, `CCOc1nnc(COc2nc(-c3cc(F)c(Cc4nc5c(F)cc(C(=O)O)cc5n4[C@@H]4COCC4(C)C)cc3F)ccc2F)s1` [Example 423, (S)-1-(4,4-dimethyltetrahydrofuran-3-yl)-2-(4-(6-((5-ethoxy-1,3,4-thiadiazol-2-yl)methoxy)-5-fluoropyridin-2-yl)-2,5-difluorobenzyl)-4-fluoro-1H-benzo[d]imidazole-6-carboxylic acid] had an EC50 of 23 pM.

For the compound `COc1nnc(COc2cccc(-c3cc(F)c(Cc4nc5ccc(C(=O)O)cc5n4C[C@@H]4CCO4)cc3F)n2)s1` [Example 1, 2-[[2,5-difluoro-4-[6-[(5-methoxy-1,3,4-thiadiazol-2-yl)methoxy]-2-pyridyl]phenyl]methyl]-3-[[(2S)-oxetan-2-yl]methyl]benzimidazole-5-carboxylic acid], the response was half-maximal at 270 pM (EC50).

In the case of `COc1nnc(COc2nc(-c3cc(Cl)c(Cc4nc5c(F)cc(C(=O)O)cc5n4C[C@@H]4CCO4)cc3C)ccc2F)s1` [Example 443, (S)-2-(2-chloro-4-(5-fluoro-6-((5-methoxy-1,3,4-thiadiazol-2-yl)methoxy)pyridin-2-yl)-5-methylbenzyl)-4-fluoro-1-(oxetan-2-ylmethyl)-1H-benzo[d]imidazole-6-carboxylic acid], the EC50 was 3450 pM. This EC50 lies about 13-fold higher than the previous one.

`COCCn1c(Cc2cc(F)c(-c3cccc(OCc4ccc(C(=O)NC5CC5)cc4)n3)cc2F)nc2ccc(C(=O)O)cc21` [Example 249, 2-[[4-[6-[[4-(cyclopropylcarbamoyl)phenyl]methoxy]-2-pyridyl]-2,5-difluoro-phenyl]methyl]-3-(2-methoxyethyl)benzimidazole-5-carboxylic acid] showed an EC50 of 36100 pM.

Turning to `COCCn1c(Cc2cc(F)c(-c3cccc(OCc4ccc(-c5cnn(C6CCOCC6)c5)cc4F)n3)cc2F)nc2ccc(C(=O)O)cc21` [Example 226, 2-(2,5-difluoro-4-(6-((2-fluoro-4-(1-(tetrahydro-2H-pyran-4-yl)-1H-pyrazol-4-yl)benzyl)oxy)pyridin-2-yl)benzyl)-1-(2-methoxyethyl)-1H-benzo[d]imidazole-6-carboxylic acid], it took 8360 pM to reach a half-maximal effect (EC50).

In the case of `Cn1cc(C#Cc2ccc(COc3cccc(-c4cc(F)c(Cc5nc6ccc(C(=O)O)cc6n5C[C@@H]5CCO5)cc4F)n3)nc2Cl)cn1` [Example 358, (S)-2-(4-(6-((6-chloro-5-((1-methyl-1H-pyrazol-4-yl)ethynyl)pyridin-2-yl)methoxy)pyridin-2-yl)-2,5-difluorobenzyl)-1-(oxetan-2-ylmethyl)-1H-benzo[d]imidazole-6-carboxylic acid], the EC50 is 243 pM.

In turn, `O=C(O)c1ccc2nc(Cc3cc(F)c(-c4cccc(OCc5ncc(C#Cc6cncs6)cc5F)n4)cc3F)n(C[C@@H]3CCO3)c2c1` [Example 303, (S)-2-(2,5-difluoro-4-(6-((3-fluoro-5-(thiazol-5-ylethynyl)pyridin-2-yl)methoxy)pyridin-2-yl)benzyl)-1-(oxetan-2-ylmethyl)-1H-benzo[d]imidazole-6-carboxylic acid] registered an EC50 of 252 pM.

On to `CCOc1nnc(COc2nc(-c3cc(F)c(Cc4nc5ccc(C(=O)O)cc5n4[C@@H]4COCC4(C)C)c(F)c3F)ccc2F)s1` [Example 265, (S)-1-(4,4-dimethyltetrahydrofuran-3-yl)-2-(4-(6-((5-ethoxy-1,3,4-thiadiazol-2-yl)methoxy)-5-fluoropyridin-2-yl)-2,3,6-trifluorobenzyl)-1H-benzo[d]imidazole-6-carboxylic acid], for which the half-maximal effective concentration (EC50) turned out to be 152 pM. Against the preceding compound, the EC50 is about 1.7-fold lower.

For the compound `N#CCn1ccc(COc2cccc(-c3cc(F)c(Cc4nc5ccc(C(=O)O)cc5n4C[C@@H]4CCO4)cc3F)n2)n1` [Example 238, 2-[[4-[6-[[1-(cyanomethyl)pyrazol-3-yl]methoxy]-2-pyridyl]-2,5-difluoro-phenyl]methyl]-3-[[(2S)-oxetan-2-yl]methyl]benzimidazole-5-carboxylic acid], the EC50 was 8610 pM.

`CC(F)(F)c1cnc(COc2cccc(-c3cc(F)c(Cc4nc5c(F)cc(C(=O)O)cc5n4C[C@@H]4CCO4)cc3F)n2)s1` [Example 318, (S)-2-(4-(6-((5-(1,1-difluoroethyl)thiazol-2-yl)methoxy)pyridin-2-yl)-2,5-difluorobenzyl)-4-fluoro-1-(oxetan-2-ylmethyl)-1H-benzo[d]imidazole-6-carboxylic acid] registered an EC50 of 28 pM.

The compound `Cc1nc(COc2cccc(-c3cc(F)c(Cc4nc5ccc(C(=O)O)cc5n4C[C@@H]4CCO4)cc3F)n2)cn1C(F)F` [Example 180, (S)-2-(4-(6-((1-(difluoromethyl)-2-methyl-1H-imidazol-4-yl)methoxy)pyridin-2-yl)-2,5-difluorobenzyl)-1-(oxetan-2-ylmethyl)-1H-benzo[d]imidazole-6-carboxylic acid] returned a concentration for a half-maximal effect (EC50) of 28000 pM.

In turn, `Cc1nnc(COc2cccc(-c3cc(F)c(Cc4nc5ccc(C(=O)O)cc5n4[C@@H]4COCC4(C)C)cc3F)n2)s1` [Example 290, (S)-2-(2,5-difluoro-4-(6-((5-methyl-1,3,4-thiadiazol-2-yl)methoxy)pyridin-2-yl)benzyl)-1-(4,4-dimethyltetrahydrofuran-3-yl)-1H-benzo[d]imidazole-6-carboxylic acid] had an EC50 of 155 pM.

`Cn1cc(-c2nnc(COc3cccc(-c4cc(F)c(Cc5nc6ccc(C(=O)O)cc6n5C[C@@H]5CCO5)cc4F)n3)s2)cn1` [Example 91, (S)-2-(2,5-difluoro-4-(6-((5-(1-methyl-1H-pyrazol-4-yl)-1,3,4-thiadiazol-2-yl)methoxy)pyridin-2-yl)benzyl)-1-(oxetan-2-ylmethyl)-1H-benzo[d]imidazole-6-carboxylic acid] came in with an EC50 of 120 pM.

For the compound `NC(=O)c1ccc(COc2cccc(-c3cc(F)c(Cc4nc5ccc(C(=O)O)cc5n4C[C@@H]4CCO4)cc3F)n2)o1` [Example 171, (S)-2-(4-(6-((5-carbamoylfuran-2-yl)methoxy)pyridin-2-yl)-2,5-difluorobenzyl)-1-(oxetan-2-ylmethyl)-1H-benzo[d]imidazole-6-carboxylic acid], a half-maximal effect (EC50) was put at 2940 pM.

Turning to `Cn1cc(-c2cnc(COc3cccc(-c4cc(F)c(Cc5nc6ccc(C(=O)O)cc6n5C[C@@H]5CCO5)cc4F)n3)s2)cn1` [Example 79, 2-[[2,5-difluoro-4-[6-[[5-(1-methylpyrazol-4-yl)thiazol-2-yl]methoxy]-2-pyridyl]phenyl]methyl]-3-[[(2S)-oxetan-2-yl]methyl]benzimidazole-5-carboxylic acid], the response was half-maximal at 60 pM (EC50).

As usually defined, the EC50 is the concentration needed to bring the measured effect to its halfway point. A higher EC50 goes with weaker potency.

These data come from patent publication US20250312352A1, “GLP-1R MODULATING COMPOUNDS” (Gilead Sciences, Inc., priority 2021, published 2025).
